Measurements taken from BigSolDB 2.1.

NC(=O)OCCCc1ccccc1
solubility (mole fraction)
Details | 283.15 K | 288.15 K | 293.15 K | 298.15 K | 303.15 K | 308.15 K | 313.15 K | 318.15 K | 323.15 K
in 2-butanone | 0.0601 | 0.0718 | 0.0829 | 0.0993 | 0.117 | 0.131 | 0.147 | 0.164 | 0.187
in acetone | 0.0652 | 0.0775 | 0.0939 | 0.107 | 0.12 | 0.137 | 0.158 | 0.179 | 0.202
in ethanol | 0.0156 | 0.0178 | 0.0239 | 0.0307 | 0.0392 | 0.0493 | 0.0623 | 0.0808 | 0.1
in ethyl acetate | 0.0493 | 0.0567 | 0.0687 | 0.0803 | 0.0929 | 0.104 | 0.117 | 0.13 | 0.144
in isopropanol | 0.0108 | 0.0149 | 0.0207 | 0.0261 | 0.0339 | 0.0439 | 0.0587 | 0.0769 | 0.0904
in methanol | 0.0202 | 0.0247 | 0.0321 | 0.0396 | 0.0492 | 0.0614 | 0.0752 | 0.1 | 0.118
in methyl acetate | 0.0494 | 0.059 | 0.0719 | 0.0862 | 0.101 | 0.119 | 0.139 | 0.161 | 0.186
in n-butanol | 0.00704 | 0.012 | 0.0198 | 0.0279 | 0.0391 | 0.0492 | 0.0663 | 0.0824 | 0.0972
in n-pentanol | 0.0174 | 0.02 | 0.0239 | 0.031 | 0.0404 | 0.0523 | 0.0668 | 0.081 | 0.0946
in n-propanol | 0.0127 | 0.0155 | 0.0219 | 0.028 | 0.0349 | 0.045 | 0.0589 | 0.0771 | 0.0989
in sec-butanol | 0.0138 | 0.017 | 0.0226 | 0.0299 | 0.0405 | 0.0515 | 0.0679 | 0.092 | 0.118
in water | 8.1e-06 | 1.5e-05 | 3.19e-05 | 5.99e-05 | 0.000107 | 0.000165 | 0.000229 | 0.000293 | 0.000378
